Data taken from US8183242B2, “Aminopyrimidine compounds and their salts, process for preparation and pharmaceutical use thereof” (priority 2004, dated 2012).
Marks after values point to notes of the source that are not given here.

Tests used:
[1] = system: human acute promyelocytic leukemia HL-60 cell; assay: MTT assay, inhibition of proliferation of HL-60 cells cultured in vitro (Bcr-Abl negative control model); format: cell-based; conditions: drug 48 h
Method: HL-60: human acute promyelocytic leukemia Cell. The expression of Bcr-Abl tyrosine kinase is negative.
(§1) Cells were grown in a medium containing 10% fetal bovine serum and were kept in the logarithmic growth phase.
(§2) The cells were pre-incubated in an incubator at 37° C. in 5% CO2 for 24 hours. The drug with 6 to 8 different concentrations was added and treated continuously for 48 h.
(§3) After the treatment of the drug, take photos by a phase contrast microscope. Then MTT treatment solution was added into each well and after 4 hours lysed the cells by DMSO. The OD values for each well were determined by using Plarstar ELIASA.
Concentration setting: 5-8 concentrations within the range of 0.001-10 μM were set, and each concentration is set in triplicate.

[2] = system: transplant tumor of human granulocytic leukemia K562; assay: Test Example 2: therapeutic effect on naked mice with transplant tumor of human granulocytic leukemia K562; conditions: for Body weight before dissection d0 / TV x ± SD d0: d0 = grouping and first administration; for Body weight before dissection dn / TV x ± SD dn: dn = day 21; for CR: complete extinction (complete resolution) of tumor: end of experiment (Day 21), mice with CR/group; for mice in which the tumor was extinct: 75 mg/kg oral gavage once per day
Method: Animals were allowed to acclimatize the environment for one week, and then the animals were inoculated subcutaneously human leukemia K562 cells. When the tumors have grown to a volume of 100-300 mm^3, the animals were randomly grouped (d0). The naked mice were administered by oral gavage. […] The animals were administered once per day for 21 days. Measured the volume of the tumors 2-3 times per week and weighed the animals followed by recording the data. The formula for calculating the volume of tumor (V): V=½×a×b^2, wherein a represents the length and b represents the width.
The mice were continuously administered by oral gavage once per day for 21 days.

[3] = system: transplant tumor of human granulocytic leukemia K562; assay: Test Example 3: therapeutic effect of HH-GV-678 and Gleevec on naked mice with transplant tumor of human granulocytic leukemia K562; conditions: for Body weight before dissection d0 / TV x ± SD d0: d0 = grouping and first administration; for Body weight before dissection dn / TV x ± SD dn: dn = day 21; for CR: complete resolution: end of experiment, mice with CR/group
Source text: Animals were allowed to acclimatize the environment for one week, and then the animals were inoculated subcutaneously human leukemia K562 cells. When the tumors have grown to a volume of 100-300 mm^3, the animals were randomly grouped (d0). […] Measured the volume of the tumors 2-3 times per week and weighed the animals followed by recording the data. The formula for calculating the volume of tumor (V): V =1/2×a×b^2, wherein a represents the length and b represents the width.

[4] = system: human chronic myelogenous leukemia K562 cell (expressing P210 Bcr-Abl tyrosine kinase); assay: MTT assay, inhibition of proliferation of K562 cells cultured in vitro
Method: as §1, §2, §3

[5] = 37.5 mg/kg oral gavage once per day 21 days
[6] = 75 mg/kg oral gavage once per day 21 days
[7] = 150 mg/kg oral gavage once per day 21 days
[8] = 150 mg/kg each time, oral gavage twice per day 21 days

Compound: CS(=O)(=O)O.Cc1ncc(NC(=O)c2ccc(CN3CCN(C)CC3)c(C(F)(F)F)c2)cc1Nc1nccc(-c2cccnc2)n1 [HH-GV-F, 4-((4-methylpiperazin-1-yl)methyl)-N-[6-methyl-5-[[4-(pyrid-3-yl)pyrimidin-2-yl]amino]pyrid-3-yl]-3-(trifluoromethyl)-benzamide methanesulfonic acid salt]
- IC50 [1]: ≥ 10 µM
- RTV x ± SD [2, 5]: 2.85 ± 3.18
- T/C [2, 5]: 40.4* %
- effect on the growth of K562 tumor [2, 5]: significantly inhibited the growth of K562 tumor, but did not cause the tumor extinct
- Body weight before dissection d0 [2, 5]: 19.3 gram
- TV x ± SD d0 [2, 5]: 119 ± 51 mm^3
- Body weight before dissection dn [2, 5]: 18.8 gram
- TV x ± SD dn [2, 5]: 294 ± 255 mm^3
- CR: complete extinction (complete resolution) of tumor [2, 5]: 0/6
- RTV x ± SD [2, 6]: 1.38 ± 3.08
- T/C [2, 6]: 19.6* %
- Body weight before dissection d0 [2, 6]: 19.2 gram
- TV x ± SD d0 [2, 6]: 127 ± 46 mm^3
- Body weight before dissection dn [2, 6]: 19.3 gram
- TV x ± SD dn [2, 6]: 95 ± 199 mm^3
- CR: complete extinction (complete resolution) of tumor [2, 6]: 4/6
- mice in which the tumor was extinct ([2]; Day 9): 1/6
- mice in which the tumor was extinct ([2]; Day 12): 4/6
- mice in which the tumor was extinct ([2]; Day 15): 5/6
- RTV x ± SD [3, 6]: 0 ± 0
- T/C [3, 6]: 0* %
- Body weight before dissection d0 [3, 6]: 24.0 gram
- TV x ± SD d0 [3, 6]: 168 ± 65 mm^3
- Body weight before dissection dn [3, 6]: 24.7 gram
- TV x ± SD dn [3, 6]: 0 ± 0 mm^3
- CR: complete resolution [3, 6]: 7/8
- complete resolution (CR) of tumors, mice of the group ([3]; 75 mg/kg oral gavage once per day, Day 6): 3/8
- complete resolution (CR) of tumors, mice of the group ([3]; 75 mg/kg oral gavage once per day, Day 9): 7/8
- complete resolution (CR) of tumors, mice of the group ([3]; 75 mg/kg oral gavage once per day, Day 12): 8/8
- RTV x ± SD [3, 7]: 0 ± 0
- T/C [3, 7]: 0* %
- Body weight before dissection d0 [3, 7]: 24.3 gram
- TV x ± SD d0 [3, 7]: 152 ± 37 mm^3
- Body weight before dissection dn [3, 7]: 23.9 gram
- TV x ± SD dn [3, 7]: 0 ± 0 mm^3
- CR: complete resolution [3, 7]: 8/8
- complete resolution (CR) of tumors, mice of the group ([3]; 150 mg/kg oral gavage once per day, Day 6): 6/8
- complete resolution (CR) of tumors, mice of the group ([3]; 150 mg/kg oral gavage once per day, Day 9): 8/8
- toxicity ([3]; mouse, in vivo): relatively lower

Compound: CS(=O)(=O)O.Cc1ncc(NC(=O)c2ccc(CN3CCN(C)CC3)c(Cl)c2)cc1Nc1nccc(-c2cccnc2)n1 [HH-GV-E, 4-((4-methylpiperazin-1-yl)methyl)-N-[6-methyl-5-[[4-(pyrid-3-yl)pyrimidin-2-yl]amino]pyrid-3-yl]-3-chloro-benzamide methanesulfonic acid salt]
- IC50 [1]: > 10 µM
- RTV x ± SD [2, 6]: 9.60 ± 6.51
- T/C [2, 6]: 103.6%
- Body weight before dissection d0 [2, 6]: 18.5 gram
- TV x ± SD d0 [2, 6]: 130 ± 58 mm^3
- Body weight before dissection dn [2, 6]: 14.2 gram
- TV x ± SD dn [2, 6]: 954 ± 242 mm^3
- CR: complete extinction (complete resolution) of tumor [2, 6]: 0/6
- RTV x ± SD [2, 7]: 3.24 ± 1.65
- T/C [2, 7]: 47.4* %
- effect on the growth of K562 tumor [2, 7]: significant inhibition effect on the growth of K562 tumor
- Body weight before dissection d0 [2, 7]: 18.8 gram
- TV x ± SD d0 [2, 7]: 149 ± 31 mm^3
- Body weight before dissection dn [2, 7]: 15.2 gram
- TV x ± SD dn [2, 7]: 455 ± 214 mm^3
- CR: complete extinction (complete resolution) of tumor [2, 7]: 0/6
- selectivity for the target ([4]; HL-60 versus K562 cells): > 125 folds
- IC50 ([4]; Homo sapiens, K562, 48 h, read-out: IC50, inhibition of proliferation of leukemia cells): 0.08 µM

Compound: Cc1ccc(NC(=O)c2ccc(CN3CCN(C)CC3)cc2)cc1Nc1nccc(-c2cccnc2)n1 [Gleevec, Imatinib, reference compound]
- RTV x ± SD [2, 6]: 8.56 ± 7.09
- T/C [2, 6]: 121.0%
- Body weight before dissection d0 [2, 6]: 19.3 gram
- TV x ± SD d0 [2, 6]: 153 ± 68 mm^3
- Body weight before dissection dn [2, 6]: 15.6 gram
- TV x ± SD dn [2, 6]: 971 ± 154 mm^3
- CR: complete extinction (complete resolution) of tumor [2, 6]: 0/6
- mice died ([2]; 150 mg/kg group, Day 18, death considered to be related to the tumor): 1/6
- RTV x ± SD [2, 7]: 8.30 ± 5.65
- T/C [2, 7]: 117.7%
- Body weight before dissection d0 [2, 7]: 20.3 gram
- TV x ± SD d0 [2, 7]: 127 ± 45 mm^3
- Body weight before dissection dn [2, 7]: 16.3 gram
- TV x ± SD dn [2, 7]: 824 ± 170 mm^3
- CR: complete extinction (complete resolution) of tumor [2, 7]: 0/6
- effect on the growth of the tumor ([2]; present protocol: 75 and 150 mg/kg oral gavage once per day 21 days): did not have significant effect on the growth of the tumor
- T/C [3, 8]: 34.2* %
- Body weight before dissection d0 [3, 8]: 24.1 gram
- TV x ± SD d0 [3, 8]: 144 ± 33 mm^3
- Body weight before dissection dn [3, 8]: 20.6 gram
- TV x ± SD dn [3, 8]: 501 ± 347 mm^3
- CR: complete resolution [3, 8]: 2/8
- complete resolution (CR) of tumors, mice of the group ([3]; 150 mg/kg each time, oral gavage twice per day, Day 12): 1/8
